Experiments:
[1] = Determination of Log D value (flask shaking method); type: physicochemical; settings: pH 6.8; partition between n-octanol and second solution for the disintegration test (16th revised Japanese Pharmacopoeia), room temperature
Experimental: More specifically, the Log D is more preferably 1.6 or more and 2.3 or less, still more preferably 1.8 or more and 2.2 or less, and particularly preferably 1.8 or more and 2.1 or less. Here, the Log D value in the present invention is a compound partition coefficient between n-octanol and a second solution of a disintegration test of the 16th revised Japanese Pharmacopoeia.
The Log D value was determined using a flask shaking method, where a test compound partition coefficient between n-octanol and the second solution for the disintegration test defined in the 16th revised Japanese Pharmacopoeia was calculated. Specifically, in a microtube containing 2 mg of the test compound, n-octanol (0.25 mL) and the second solution for the disintegration test (0.25 mL) were mixed. The tube was shaken in a multi shaker at room temperature for 60 minutes, and allowed to stand until the two phases were completely separated. In the microtube, 10 μL of an n-octanol phase was diluted with 190 μL of 85% methanol and mixed, thereby obtaining an organic phase test solution. 100 μL of the second solution phase for the disintegration test was diluted with 100 μL of 50% methanol, and mixed, thereby obtaining an aqueous phase test solution. The organic phase test solution and the aqueous phase test solution were filtered, respectively, and the concentration of the test compound in these test solutions were measured, using high performance liquid chromatography. Then, from the measured concentration and dilution rate, the Log D was calculated.
That is, the Log D of the present specification is represented by the following equation: Log D=Log10([concentration of test compound in organic phase test solution]/[concentration of test compound in aqueous phase test solution])+1 [Equation 1]
The second solution for the disintegration test herein refers to, as defined in the 16th revised Japanese Pharmacopoeia, a liquid obtained by adding to 250 mL of a 0.2 mol/L potassium dihydrogenphosphate reagent, 118 mL of a 0.2 mol/L sodium hydroxide reagent, and water for adjusting to 1000 mL volume.

human sGC = target: T1, human sGC (Homo sapiens, UniProt Q02153); test: Measurement of sGC activating effect in CHO-K1 cells stably expressing human sGC and mouse CNGA2; type: cell-based; settings: CHO-K1 cells expressing human sGC and mouse CNGA2, Fura2 calcium readout, 10 μmol/L ODQ in assay buffer
T1 construct: expressed in transfected cells; host or cells: CHO-K1 cells (Chinese hamster ovary), stably co-expressing mouse CNGA2 as the calcium read-out channel
T1 sequence (Q02153 1-619): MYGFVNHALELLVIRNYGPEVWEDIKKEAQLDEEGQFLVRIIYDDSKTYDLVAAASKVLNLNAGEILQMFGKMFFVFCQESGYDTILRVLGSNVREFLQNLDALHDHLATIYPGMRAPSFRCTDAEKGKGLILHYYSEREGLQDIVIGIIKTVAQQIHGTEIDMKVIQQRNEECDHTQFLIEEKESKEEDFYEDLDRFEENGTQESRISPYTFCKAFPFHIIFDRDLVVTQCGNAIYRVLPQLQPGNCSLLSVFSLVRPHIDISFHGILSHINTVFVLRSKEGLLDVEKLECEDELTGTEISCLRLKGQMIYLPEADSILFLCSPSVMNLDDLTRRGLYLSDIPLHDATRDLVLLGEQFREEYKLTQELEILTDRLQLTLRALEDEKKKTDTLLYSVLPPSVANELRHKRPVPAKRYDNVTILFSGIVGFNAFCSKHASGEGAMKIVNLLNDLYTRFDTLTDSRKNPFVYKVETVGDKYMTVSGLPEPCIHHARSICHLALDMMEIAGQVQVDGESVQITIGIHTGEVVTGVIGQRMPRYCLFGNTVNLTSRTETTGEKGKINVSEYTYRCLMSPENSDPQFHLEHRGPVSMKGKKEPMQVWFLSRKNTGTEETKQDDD
T1 sequence (Q02108 1-690 partner): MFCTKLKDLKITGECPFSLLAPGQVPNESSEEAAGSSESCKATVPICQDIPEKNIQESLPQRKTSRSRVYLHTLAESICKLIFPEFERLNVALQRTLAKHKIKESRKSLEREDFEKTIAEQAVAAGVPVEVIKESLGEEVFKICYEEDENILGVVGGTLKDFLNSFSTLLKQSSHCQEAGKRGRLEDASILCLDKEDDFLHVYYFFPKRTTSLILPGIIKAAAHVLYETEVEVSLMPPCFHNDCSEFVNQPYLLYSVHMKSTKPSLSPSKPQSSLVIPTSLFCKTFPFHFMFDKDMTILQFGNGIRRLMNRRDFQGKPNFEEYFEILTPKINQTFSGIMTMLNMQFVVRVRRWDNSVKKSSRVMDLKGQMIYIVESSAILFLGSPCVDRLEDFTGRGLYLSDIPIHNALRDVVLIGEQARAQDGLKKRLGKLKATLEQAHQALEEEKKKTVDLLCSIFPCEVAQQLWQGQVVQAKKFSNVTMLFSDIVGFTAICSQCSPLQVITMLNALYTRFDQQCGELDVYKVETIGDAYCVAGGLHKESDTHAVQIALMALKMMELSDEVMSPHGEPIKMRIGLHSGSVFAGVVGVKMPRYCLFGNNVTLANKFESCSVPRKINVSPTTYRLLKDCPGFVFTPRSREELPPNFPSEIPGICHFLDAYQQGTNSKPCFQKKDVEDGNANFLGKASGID
Experimental: Chinese Hamster ovary cells (CHO-K1 cells) modified for stably expressing human sGC α subunit and β subunit, and a mouse cyclic nucleotide gated channel (CNGA2) were used in the test.
The CHO-K1 cells stably expressing human sGC and mouse CNGA2 were cultured at 37° C. in a F-12 medium supplemented with 10% (v/v) fetal bovine serum (FBS), penicillin (100 U/mL), streptomycin (100 μg/mL), G418 (250 μg/mL), and Zeocin (250 μg/mL). The cells were suspended in a culture medium, seeded in a 96 well plate, and cultured at 37° C. for 24 hours. The cells were washed with an assay buffer 1 (140 mmol/L of sodium chloride, 5 mmol/L of potassium chloride, 0.5 mmol/L of magnesium chloride, 0.01 mmol/L of calcium chloride, 10 mmol/L of glucose, 0.4 mmol/L of magnesium sulfate, 10 mmol/L of 4-(2-hydroxyethyl)piperazine-1-yl ethanesulfonic acid, 125 μmol/L of sulfinpyrazone, pH 7.4), and then an indicator solution in which Fura2-AM as a fluorescent Ca2+ indicator is dissolved in assay buffer 1 at a concentration of 5 μmol/L was added thereto, and cultured at 37° C. for 60 minutes. The culture medium was removed, the cells were washed with assay buffer 1, the test compound solution was added thereto, and cultured at room temperature for 10 minutes. The plate was mounted on a fluorescence microplate reader (FlexStation II, available from Molecular Devices) with setting of excitation wavelengths of 340 and 380 nm and a detection wavelength of 510 nm, an intracellular calcium concentration was measured as a fluorescent intensity ratio obtained from each excitation wavelength.
In this test, the solution of the test compound was prepared by dissolving each test compound in DMSO at a concentration of 10 mmol/L, and then diluting the solution with assay buffer 2 (140 mmol/L of sodium chloride, 5 mmol/L of potassium chloride, 0.5 mmol/L of magnesium chloride, 1 mmol/L of calcium chloride, 10 mmol/L of glucose, 0.4 mmol/L of magnesium sulfate, 10 mmol/L of 4-(2-hydroxyethyl)piperazine-1-yl ethanesulfonic acid, 125 μmol/L of sulfinpyrazone, 100 μmol/L of isobutylmethylxanthine, 10 μmol/L of 1H-[1,2,4]-oxadiazole [4,3-a]quinoxaline-1-on (hereinafter, referred to as ODQ), pH 7.4), in order to adjust the concentration of 10 μmol/L for testing. As a control solution, a DMSO diluted solution was used, instead of the test compound solution.
The activity of the test compound was calculated as an increase rate (%) of the sGC activity in the test compound solution relative to the sGC activity in the control solution, by dividing a fluorescent intensity ratio in adding the test compound by a fluorescent intensity ratio of the control solution, and subtracting the sGC activity in the control solution (100%) therefrom. An EC50 value was calculated from the activity of the test compound at concentrations of 0.0001, 0.001, 0.003, 0.01, 0.03, 0.1, 1, and 10 μmol/L, using a 4 parameter losgistic model from Assay Explorer (available from Dssault Systèmes BIOVIA).

| SMILES | logD [1] | EC50 (human sGC) [nM] |
| --- | --- | --- |
| O=C(O)CCCCN(CCc1ccccc1OCc1ccc(OCc2ccccc2)cc1)C1CCOc2cc(C(=O)O)ccc21 (centres unmarked) [Compound No. 24, 4-[N-[2-[2-(4-benzyloxybenzyloxy)phenyl]ethyl]-N-(4-carboxybutyl)amino]-chromane-7-carboxylic acid] | 2.4 | 8.73 |
| O=C(O)CCCCN(CCc1ccccc1OC[C@@H]1CCc2ccccc2C1)C1CCCc2cc(C(=O)O)ccc21 (stereo partly drawn) [Compound No. 16, 5-[N-(4-carboxybutyl)-N-[2-[2-((2R)-1,2,3,4-tetrahydronaphthalene-2-ylmethoxy)phenyl]ethyl]amino]-5,6,7,8-tetrahydronaphthalene-2-carboxylic acid] | 1.99 | 7.5 |
| O=C(O)CCCCN(CCc1ccccc1OCc1ccc(OCc2ccccc2)cc1)C1CCCc2cc(C(=O)O)ccc21 (centres unmarked) [Compound No. 26, 5-[N-[2-[2-(4-benzyloxybenzyloxy)phenyl]ethyl]amino-N-(4-carboxybutyl)]-5,6,7,8-tetrahydronaphthalene-2-carboxylic acid] | 2.24 | 15.6 |
| O=C(O)CCCCN(CCc1ccccc1OCc1cc2c(s1)CCCC2)C1CCCc2cc(C(=O)O)ccc21 (centres unmarked) [Compound No. 19, 5-[N-(4-carboxybutyl)-N-[2-[2-(4,5,6,7-tetrahydrobenzo[b]thiophene-2-ylmethoxy)phenyl]ethyl]amino]-5,6,7,8-tetrahydronaphthalene-2-carboxylic acid] | 1.74 | 33.5 |
| O=C(O)CCCCN(Cc1ccc(C(=O)O)cc1)CC(OCc1ccc(CCc2ccccc2)cc1)c1ccc(F)cc1 (centres unmarked) [Compound No. 13, 4-([N-(4-carboxybutyl)-N-[2-(4-fluorophenyl)-2-[4-(2-phenylethyl)benzyloxy]ethyl]amino]methyl)benzoic acid] | 2.19 | 26.5 |
| CC(C)(C)c1cccc(COc2ccccc2CCN(CCCCC(=O)O)[C@H]2CCCc3cc(C(=O)O)ccc32)c1 [Compound No. 9, (+)-(5S)-5-[N-[2-[2-(3-tert-butylbenzyloxy)phenyl]ethyl]-N-(4-carboxybutyl)amino]-5,6,7,8-tetrahydronaphthalene-2-carboxylic acid] | 2.09 | 7.09 |
| O=C(O)CCCCN(CCc1ccccc1OCc1ccc(C#CC2CC2)cc1)C1CCCc2cc(C(=O)O)ccc21 (centres unmarked) [Compound No. 21, 5-[N-(4-carboxybutyl)-N-[2-[2-[4-(2-cyclopropylethynyl)benzyloxy]phenyl]ethyl]amino]-5,6,7,8-tetrahydronaphthalene-2-carboxylic acid] | 2.06 | 15.9 |
| CC(C)(C)c1cccc(CO[C@@H](CN(CCCCC(=O)O)Cc2ccc(C(=O)O)cc2)c2cccc(Cl)c2)c1 [Compound No. 2, (−)-4-([N-[2-(3-tert-butylbenzyloxy)-(2R)-2-(3-chlorophenyl)ethyl]-N-(4-carboxybutyl)amino]methyl)benzoic acid] | 2.14 | 1.54 |
| O=C(O)CCCCN(Cc1ccc(C(=O)O)cc1)C[C@H](OCc1cccc(CCc2ccccc2)c1)c1ccccc1 [Compound No. 11, (−)-4-([N-(4-carboxybutyl)-N-[(2R)-2-[3-(2-phenylethyl)benzyloxy]-2-phenylethyl]amino]methyl)benzoic acid] | 1.94 | 1.99 |
| O=C(O)CCCCN(CCc1ccccc1OCc1ccc(COc2ccccc2)cc1)C1CCCc2cc(C(=O)O)ccc21 (centres unmarked) [Compound No. 22, 5-[N-(4-carboxybutyl)-N-[2-[2-(4-phenoxymethylbenzyloxy)phenyl]ethyl]amino]-5,6,7,8-tetrahydronaphthalene-2-carboxylic acid] | 2.18 | 8.86 |
| O=C(O)CCCCN(CCc1ccccc1OCc1ccc(CCc2ccccc2)cc1)[C@H]1CCc2cc(C(=O)O)ccc21 [Compound No. 12] | 1.95 | 11.9 |
| N#Cc1cccc([C@H](CN(CCCCC(=O)O)Cc2ccc(C(=O)O)cc2)OCc2ccc(CCc3ccccc3)cc2)c1 [Compound No. 1, (−)-4-([N-(4-carboxybutyl)-N-[(2R)-2-(3-cyanophenyl)-2-[4-(2-phenylethyl)benzyloxy]ethyl]amino]methyl)benzoic acid] | 2.03 | 8.8 |
| O=C(O)CCCCN(Cc1ccc(C(=O)O)cc1)CC(OCc1ccc(CCc2ccccc2)cc1)c1cccs1 (centres unmarked) [Compound No. 7, ([N-(4-carboxybutyl)-N-[2-[4-(2-phenylethyl)benzyloxy]-2-(2-thienyl)ethyl]amino]methyl)benzoic acid] | 2.11 | 3.92 |
